Measurements taken from patent US6660910B1, “Selection marker” (Syngenta Mogen B.V., priority 1997, dated 2003).

Experiments:
[1] = test system: cotyledons of Lycopersicon esculentum cv. Money Maker; experiment: Transformation of tomato cotyledon explants with selection on cyanamide or kanamycin; assay type: cell-based; conditions: for No. of rooting shoots: rooting medium 50 mg/l cyanamide
Method: Described below is the method used for transformation of cotyledons of Lycopersicon esculentum cv. Money Maker using Agrobacterium tumefaciens. The binary vectors and Agrobacteria strains for this transformation method are identical to those described above. Tomato seedlings were germinated on Germination Medium (GEM) under a 16 h light period (1700 lux) at 24° C. and a 8 h dark period at 21° C. (The contents of the various media can be found in Table 4). Cotyledon explants of 5 to 7 day old seedlings were cut on sterile filter paper soaked with Washing Medium (WAM) and placed on plates containing Cocultivation Medium (COM). The plates, each containing approximately 50 explants, were incubated overnight under the same conditions as described above.
The pre incubated explants were carefully submerged in the Agrobacterium inoculum for 20 minutes.
The explants were then blotted dry on sterile filter paper and incubated for 48 h on the second set of Cocultivation plates. In procession the explants were incubated for 72 h on plates containing Postcultivation Medium (POM) after which the explants were transferred to Shoot inducing Medium (SIM) containing several concentrations of cyanamide or kanamycin. Every three weeks the explants were subcultured on the same medium. After approximately 8-12 weeks shoots were excised and placed on Root inducing Medium (RIM). Shoots that were able to root were then transferred to Root inducing Medium containing 50 mg/l cyanamide or 30 mg/l kanamycin. Simultaneously leaflets of the rooted shoots were tested for expression of the gus gene in a histochemical GUS assay.

[2] = test system: root segments of Arabidopsis thaliana cv. C24; experiment: Arabidopsis root transformation with selection on cyanamide or kanamycin; assay type: cell-based; conditions: for % Shoots rooting / Nr. of plants (shoots developed into plants and able to root) / Percentage of GUS expressing plants (% of plants staining blue): pMOG 1156
Method: Described below is the method used for transformation of root segments of Arabidopsis thaliana cv. C24 using Agrobacterium tumefaciens. The binary vectors for this transformation method are identical to those described above.
Six mg of Arabidopsis seeds were germinated in a flask containing liquid Germination Medium (GM) under 16 h light period (1700 lux) at 24° C. and a 8 h dark period at 21° C. at 80 rpm. (The contents of various media can be found in Table 4). Roots of 9 days old seedlings were isolated in a sterile petridish and collected in a drop of Germination Medium (GM). Roots were cut in segments of approximately 3-5 mm and approximately 100 explants were spread evenly on a nylon membrane (O 8 cm) which was placed on plates containing Callus Inducing Medium (CIM). The plates were incubated 3 days under the same conditions as described above.
The Agrobacterium strain used in this study harbored a rifampicin selection marker in a C 58 chromosomal background. The construction of the helper strain MOG101 is described by Hood et al. (1993).
Agrobacteria were grown overnight in LB medium with antibiotics (rifampicin 20 mg/l, kanamycin 100 mg/l). The overnight culture was diluted 1:10 in LB without antibiotics and grown for approximately 3 hours. Bacterial suspensions were centrifuged at 1600×g for 15 minutes at room temperature. Bacteria were resuspended in GM and adjusted to OD600=0.1 and used for cocultivation.
The membrane containing approximately 100 explants was incubated for 2 minutes with the Agrobacterium suspension and dried on sterile filter paper to remove excess of bacteria. The membrane with explants are cultured for 48 h on CIM plates. After rinsing the membrane and explants with liquid GM these were incubated on Shoot Induction Medium (SIM) plates containing several concentrations of cyanamide or kanamycin. After 5 days the membrane with the explants was transferred to the same medium (SIM) for subculture. The second subculture was after 2 weeks. Approximately four weeks after cocultivation 60 shoots per cyanamide concentration were excised and placed on plates with Shoot Elongation Medium (SEM) containing 30 mg/l cyanamide. Shoots which were able to root are tested on their transgenic character by testing leaflets and flowers for expression of the gus gene using a histochemical GUS assay.
Three experiments were performed. Shoots obtained from Exp. 98-8 and 98-11 were transferred to rooting medium (SEM) containing 30 mg/litre cyanamide. Shoots obtained from Exp. 98-13 were transferred to rooting medium containing the same concentration as the selection medium (SIM), for results see Table 4a. The shoots obtained from the kanamycin selection (50 mg/litre) were transferred to rooting medium containing 25 mg/litre Kanamycin.

[3] = pMOG410 (gus-nptII), Cyanamide 20 mg/l during regeneration, 30 inoculated explants
[4] = pMOG410 (gus-nptII), Cyanamide 30 mg/l during regeneration, 30 inoculated explants
[5] = pMOG410 (gus-nptII), Cyanamide 40 mg/l during regeneration, 30 inoculated explants
[6] = pMOG874 (cah-nptII), Cyanamide 20 mg/l during regeneration, 35 inoculated explants
[7] = pMOG874 (cah-nptII), Cyanamide 30 mg/l during regeneration, 35 inoculated explants
[8] = pMOG874 (cah-nptII), Cyanamide 40 mg/l during regeneration, 35 inoculated explants
[9] = pMOG1156 (gus-nptII-cah), Cyanamide 20 mg/l during regeneration, 30 inoculated explants
[10] = pMOG1156 (gus-nptII-cah), Cyanamide 30 mg/l during regeneration, 30 inoculated explants
[11] = pMOG1156 (gus-nptII-cah), Cyanamide 40 mg/l during regeneration, 30 inoculated explants
[12] = Experiment 98-8, selection cyanamide 20 mg/litre, rooting medium 30 mg/litre cyanamide
[13] = Experiment 98-8, selection cyanamide 30 mg/litre, rooting medium 30 mg/litre cyanamide
[14] = Experiment 98-8, selection cyanamide 40 mg/litre, rooting medium 30 mg/litre cyanamide
[15] = Experiment 98-8, selection cyanamide 60 mg/litre, rooting medium 30 mg/litre cyanamide
[16] = Experiment 98-8, selection cyanamide 80 mg/litre, rooting medium 30 mg/litre cyanamide
[17] = Experiment 98-11, selection cyanamide 20 mg/litre, rooting medium 30 mg/litre cyanamide
[18] = Experiment 98-11, selection cyanamide 30 mg/litre, rooting medium 30 mg/litre cyanamide
[19] = Experiment 98-11, selection cyanamide 40 mg/litre, rooting medium 30 mg/litre cyanamide
[20] = Experiment 98-11, selection cyanamide 50 mg/litre, rooting medium 30 mg/litre cyanamide
[21] = Experiment 98-11, selection cyanamide 80 mg/litre, rooting medium 30 mg/litre cyanamide
[22] = Experiment 98-13, selection cyanamide 20 mg/litre, rooting medium same concentration as selection medium
[23] = Experiment 98-13, selection cyanamide 30 mg/litre, rooting medium same concentration as selection medium
[24] = Experiment 98-13, selection cyanamide 50 mg/litre, rooting medium same concentration as selection medium
[25] = Experiment 98-13, selection cyanamide 60 mg/litre, rooting medium same concentration as selection medium
[26] = Experiment 98-13, selection cyanamide 80 mg/litre, rooting medium same concentration as selection medium

## N#CN [Cyanamide]
[1]; [3]
  No. of excised shoots: 0
  No. of gus + shoots: 0
  No. of rooting shoots: 0
[1]; [4]
  No. of excised shoots: 3
  No. of gus + shoots: 0
  No. of rooting shoots: 0
[1]; [5]
  No. of excised shoots: 0
  No. of gus + shoots: 0
  No. of rooting shoots: 0
[1]; [6]
  No. of excised shoots: 2
  No. of rooting shoots: 0
[1]; [7]
  No. of excised shoots: 0
  No. of rooting shoots: 0
[1]; [8]
  No. of excised shoots: 1
  No. of rooting shoots: 1
[1]; [9]
  No. of excised shoots: 0
  No. of gus + shoots: 0
  No. of rooting shoots: 0
[1]; [10]
  No. of excised shoots: 5
  No. of gus + shoots: 0
  No. of rooting shoots: 0
[1]; [11]
  No. of excised shoots: 5
  No. of gus + shoots: 3
  No. of rooting shoots: 3
[2]; PMOG 1156, lower cyanamide concentrations
  Speed of shoot regeneration compared with kanamycin: regeneration of shoots was faster than with kanamycin
[2]; explants transformed with pMOG 410 (without the cah gene), 20 mg/litre cyanamide
  Regeneration of root explants: already enough to prevent regeneration
[2]; explants transformed with pMOG 410, 50 mg/litre cyanamide and higher
  Viability of root explants: not viable and turned completely brown
[2]; explants transformed with pMOG 410, 20 till 40 mg/litre cyanamide
  Callus development of root explants: some callus development was observed
[2]; explants transformed with the cah gene (PMOG 1156), all cyanamide concentrations, even 80 mg/litre
  Regeneration of root explants: able to regenerate at all cyanamide concentrations
[2]; [12]
  % Shoots rooting: 0%
  Nr. of plants (shoots developed into plants and able to root): 0
[2]; [13]
  % Shoots rooting: 6.3%
  Nr. of plants (shoots developed into plants and able to root): 4
[2]; [14]
  % Shoots rooting: 8.2%
  Nr. of plants (shoots developed into plants and able to root): 5
[2]; [15]
  % Shoots rooting: 8.2%
  Nr. of plants (shoots developed into plants and able to root): 5
[2]; [16]
  % Shoots rooting: 13.8%
  Nr. of plants (shoots developed into plants and able to root): 9
[2]; [17]
  % Shoots rooting: 1.7%
  Nr. of plants (shoots developed into plants and able to root): 1
[2]; [18]
  % Shoots rooting: 3.2%
  Nr. of plants (shoots developed into plants and able to root): 2
[2]; [19]
  % Shoots rooting: 4.5%
  Nr. of plants (shoots developed into plants and able to root): 3
[2]; [20]
  % Shoots rooting: 8.1%
  Nr. of plants (shoots developed into plants and able to root): 5
[2]; [21]
  % Shoots rooting: 15.6%
  Nr. of plants (shoots developed into plants and able to root): 10
[2]; [22]
  % Shoots rooting: 4.8%
  Nr. of plants (shoots developed into plants and able to root): 3
[2]; [23]
  % Shoots rooting: 14.5%
  Nr. of plants (shoots developed into plants and able to root): 9
[2]; Experiment 98-13, selection cyanamide 40 mg/litre, rooting medium same concentration as selection medium
  Nr. of plants (shoots developed into plants and able to root): 1
[2]; [24]
  % Shoots rooting: 0%
  Nr. of plants (shoots developed into plants and able to root): 0
[2]; [25]
  % Shoots rooting: 6.O
  Nr. of plants (shoots developed into plants and able to root): 4
[2]; [26]
  % Shoots rooting: 11.4%
  Nr. of plants (shoots developed into plants and able to root): 8
[2]; treatment cyanamide 20 mg/litre, C30 in rooting medium
  Percentage of GUS expressing plants (% of plants staining blue): 0^1%
[2]; treatment cyanamide 20 mg/litre, rooting medium same conc. as treatment
  Percentage of GUS expressing plants (% of plants staining blue): 0%
[2]; treatment cyanamide 30 mg/litre, C30 in rooting medium
  Percentage of GUS expressing plants (% of plants staining blue): 75-100%
[2]; treatment cyanamide 30 mg/litre, rooting medium same conc. as treatment
  Percentage of GUS expressing plants (% of plants staining blue): 78%
[2]; treatment cyanamide 40 mg/litre, C30 in rooting medium
  Percentage of GUS expressing plants (% of plants staining blue): 40-100%
[2]; treatment cyanamide 40 mg/litre, rooting medium same conc. as treatment
  Percentage of GUS expressing plants (% of plants staining blue): 100%
[2]; treatment cyanamide 50 mg/litre, C30 in rooting medium
  Percentage of GUS expressing plants (% of plants staining blue): 80%
[2]; treatment cyanamide 60 mg/litre, C30 in rooting medium
  Percentage of GUS expressing plants (% of plants staining blue): 80%
[2]; treatment cyanamide 60 mg/litre, rooting medium same conc. as treatment
  Percentage of GUS expressing plants (% of plants staining blue): 100%
[2]; treatment cyanamide 80 mg/litre, C30 in rooting medium
  Percentage of GUS expressing plants (% of plants staining blue): 67-90%
[2]; treatment cyanamide 80 mg/litre, rooting medium same conc. as treatment
  Percentage of GUS expressing plants (% of plants staining blue): 100%
